In the oligonucleotide strings, read from the 5' end, every base follows the letter of its sugar. An asterisk marks phosphorothioate; unmarked linkages are phosphodiester. Other units and linkages are bracketed, terminal groups are in braces. A string of capitals states the bases alone. d = 2'-deoxy (DNA); m = 2'-O-methyl
Target: T1, human TLR7 (Homo sapiens, UniProt Q9NYK1)
T1 construct: HA; host or cells: 293XL-hTLR7-HA (HEK293)
T1 sequence (Q9NYK1 27-1049): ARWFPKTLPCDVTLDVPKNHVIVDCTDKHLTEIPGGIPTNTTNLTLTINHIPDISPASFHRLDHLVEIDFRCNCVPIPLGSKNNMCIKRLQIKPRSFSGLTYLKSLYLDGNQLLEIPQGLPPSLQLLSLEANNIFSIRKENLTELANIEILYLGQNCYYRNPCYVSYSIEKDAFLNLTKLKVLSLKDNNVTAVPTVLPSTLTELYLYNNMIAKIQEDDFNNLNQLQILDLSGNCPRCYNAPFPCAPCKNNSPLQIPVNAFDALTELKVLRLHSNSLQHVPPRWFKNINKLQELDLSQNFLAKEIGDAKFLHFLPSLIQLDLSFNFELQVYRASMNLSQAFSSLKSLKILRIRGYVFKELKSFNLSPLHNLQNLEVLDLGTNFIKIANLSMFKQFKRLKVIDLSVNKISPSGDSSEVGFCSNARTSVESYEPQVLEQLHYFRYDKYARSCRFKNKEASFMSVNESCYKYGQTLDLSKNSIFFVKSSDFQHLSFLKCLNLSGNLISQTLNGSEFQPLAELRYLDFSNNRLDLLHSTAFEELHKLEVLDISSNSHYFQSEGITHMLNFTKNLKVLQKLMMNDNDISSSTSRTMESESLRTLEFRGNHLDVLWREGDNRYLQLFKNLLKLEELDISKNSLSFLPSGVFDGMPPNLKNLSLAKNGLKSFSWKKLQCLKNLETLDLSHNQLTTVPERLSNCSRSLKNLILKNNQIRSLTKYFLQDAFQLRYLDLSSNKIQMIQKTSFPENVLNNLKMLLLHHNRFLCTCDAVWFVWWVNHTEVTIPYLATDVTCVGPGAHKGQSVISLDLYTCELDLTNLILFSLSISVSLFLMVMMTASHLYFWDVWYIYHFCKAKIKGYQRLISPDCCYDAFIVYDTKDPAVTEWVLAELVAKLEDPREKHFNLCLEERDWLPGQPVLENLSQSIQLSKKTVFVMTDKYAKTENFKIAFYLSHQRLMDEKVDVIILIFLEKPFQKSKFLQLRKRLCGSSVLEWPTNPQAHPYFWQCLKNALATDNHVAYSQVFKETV
Experiment: HEK-TLR7 NF-κB-luciferase reporter, R848 stimulation
Assay type: cell-based
Details: for TLR7 100 nM (averaged NF-κB-Luciferase level relative to R848 condition): ASO 100 nM; for TLR7 100 nM (averaged NF-κB-Luciferase level relative to R848 condition) / TLR7 500 nM (averaged NF-κB-Luciferase level relative to R848 condition): relative to R848 only, given as fraction; for TLR7 500 nM (averaged NF-κB-Luciferase level relative to R848 condition): ASO 500 nM; for TLR7-100 nM: averaged NF-κB-Luciferase relative to R848: 100 nM ASO, percentage of R848 without ASO (Alharbi et al., 2020)

In the case of “TGACAAAGATTCACTG (antisense; LNA-modified, pattern not given here) [HPRT LNA-1353 KL]”, the “TLR7 100 nM (averaged NF-κB-Luciferase level relative to R848 condition)” value is reported as 1.040 and the “TLR7 500 nM (averaged NF-κB-Luciferase level relative to R848 condition)” value is reported as 0.430.
For “GATGGCCTCCCATCTC (antisense; LNA-modified, pattern not given here) [HPRT LNA-331 V1]”, the “TLR7 100 nM (averaged NF-κB-Luciferase level relative to R848 condition)” value was 0.558 and the “TLR7 500 nM (averaged NF-κB-Luciferase level relative to R848 condition)” value was 0.119.
With “CCTCCCATCTCCTTCA (antisense; LNA-modified, pattern not given here) [HPRT LNA-326 V1]” the “TLR7 100 nM (averaged NF-κB-Luciferase level relative to R848 condition)” value was 0.758 and the “TLR7 500 nM (averaged NF-κB-Luciferase level relative to R848 condition)” value was 0.843.
In the case of “mU*mA*mU*mU*mU*C*C*A*C*A*T*G*C*C*C*mA*mG*mU*mG*mU (mU*mA*mU*mU*mU*dC*dC*dA*dC*dA*dT*dG*dC*dC*dC*mA*mG*mU*mG*mU; antisense) [[CDKN2B-AS1]627]”, the “TLR7-100 nM: averaged NF-κB-Luciferase relative to R848” value (HEK-TLR7) is reported as 30.54%.
For “AGCTTCGAGGCCCCAG (antisense; LNA-modified, pattern not given here) [MB21D1-616 LNA V1]”, the “TLR7 100 nM (averaged NF-κB-Luciferase level relative to R848 condition)” value was 0.554 and the “TLR7 500 nM (averaged NF-κB-Luciferase level relative to R848 condition)” value was 0.111.
With “GGCACTTTGCCTCCTT (antisense; LNA-modified, pattern not given here) [EGFR-2859 LNA V1]” the “TLR7 100 nM (averaged NF-κB-Luciferase level relative to R848 condition)” value was 0.774 and the “TLR7 500 nM (averaged NF-κB-Luciferase level relative to R848 condition)” value was 0.668.
With “mA*mA*mA*mG*mC*A*G*T*C*T*C*C*A*T*G*mU*mC*mC*mC*mA (mA*mA*mA*mG*mC*dA*dG*dT*dC*dT*dC*dC*dA*dT*dG*mU*mC*mC*mC*mA; antisense) [[CDKN2B-AS1]2237]” the “TLR7-100 nM: averaged NF-κB-Luciferase relative to R848” value (HEK-TLR7) was 27.16%.
For “mA*mG*mU*mG*mG*C*A*C*A*T*A*C*C*A*C*mA*mC*mC*mC*mU (AGUGGCACATACCACACCCU; antisense; sugars from the 5' end m5 d10 m5, all phosphorothioate, methylation of C not given here) [[CDKN2B-AS1]495]”, the “TLR7-100 nM: averaged NF-κB-Luciferase relative to R848” value (HEK-TLR7) was 41.95%.
“CGGCCTCGGAAGCTCT (antisense; LNA-modified, pattern not given here) [MB21D1-168 LNA V1]” was tested, and the “TLR7 100 nM (averaged NF-κB-Luciferase level relative to R848 condition)” value was 0.594 and the “TLR7 500 nM (averaged NF-κB-Luciferase level relative to R848 condition)” value was 0.139.
For “TCCACAATCAAGACAT (antisense; LNA-modified, pattern not given here) [HPRT LNA-551 KL]”, the “TLR7 100 nM (averaged NF-κB-Luciferase level relative to R848 condition)” value was 0.863 and the “TLR7 500 nM (averaged NF-κB-Luciferase level relative to R848 condition)” value was 0.533.
“GTGATGGCCTCCCATC (antisense; LNA-modified, pattern not given here) [HPRT LNA-333 V1]” was tested, and the “TLR7 100 nM (averaged NF-κB-Luciferase level relative to R848 condition)” value was 0.665 and the “TLR7 500 nM (averaged NF-κB-Luciferase level relative to R848 condition)” value was 0.139.
“CACTTCGTGGGGTCCT (antisense; LNA-modified, pattern not given here) [HPRT LNA-664 V1]” was tested, and the “TLR7 100 nM (averaged NF-κB-Luciferase level relative to R848 condition)” value was 0.868 and the “TLR7 500 nM (averaged NF-κB-Luciferase level relative to R848 condition)” value was 0.240.
“CCCACTTGGCAGACCA (antisense; LNA-modified, pattern not given here) [CTNN2B-1576 LNA V1]” was tested, and the “TLR7 100 nM (averaged NF-κB-Luciferase level relative to R848 condition)” value was 1.024 and the “TLR7 500 nM (averaged NF-κB-Luciferase level relative to R848 condition)” value was 0.639.
With “TGACTGTCTTGAGGGT (antisense; LNA-modified, pattern not given here) [MB21D1-1483 LNA KL]” the “TLR7 100 nM (averaged NF-κB-Luciferase level relative to R848 condition)” value was 0.802 and the “TLR7 500 nM (averaged NF-κB-Luciferase level relative to R848 condition)” value was 0.150.
In the case of “AGGACTCCAGATGTTT (antisense; LNA-modified, pattern not given here) [HPRT LNA pos cont]”, the “TLR7 100 nM (averaged NF-κB-Luciferase level relative to R848 condition)” value is reported as 0.437 and the “TLR7 500 nM (averaged NF-κB-Luciferase level relative to R848 condition)” value is reported as 0.293.
With “AAAGGACTGAGGAAAG (antisense; LNA-modified, pattern not given here) [CAMSAP1-6273 LNA KL]” the “TLR7 100 nM (averaged NF-κB-Luciferase level relative to R848 condition)” value was 0.513 and the “TLR7 500 nM (averaged NF-κB-Luciferase level relative to R848 condition)” value was 0.267.
“GGTCATTACAATAGCT (antisense; LNA-modified, pattern not given here) [HPRT LNA-475 KL]” was tested, and the “TLR7 100 nM (averaged NF-κB-Luciferase level relative to R848 condition)” value was 0.580 and the “TLR7 500 nM (averaged NF-κB-Luciferase level relative to R848 condition)” value was 0.049.
In the case of “ACTTCGTGGGGTCCTT (antisense; LNA-modified, pattern not given here) [HPRT LNA-663 V1]”, the “TLR7 100 nM (averaged NF-κB-Luciferase level relative to R848 condition)” value is reported as 0.804 and the “TLR7 500 nM (averaged NF-κB-Luciferase level relative to R848 condition)” value is reported as 0.736.
In the case of “GACTATACGCGCAATA (antisense; LNA-modified, pattern not given here) [NC5 LNA PS 3-10-3]”, the “TLR7 100 nM (averaged NF-κB-Luciferase level relative to R848 condition)” value is reported as 0.282 and the “TLR7 500 nM (averaged NF-κB-Luciferase level relative to R848 condition)” value is reported as 0.098.
For “GGTCTTGGCTTCGTGG (antisense; LNA-modified, pattern not given here) [MB21D1-523 LNA V1]”, the “TLR7 100 nM (averaged NF-κB-Luciferase level relative to R848 condition)” value was 0.481 and the “TLR7 500 nM (averaged NF-κB-Luciferase level relative to R848 condition)” value was 0.042.
“GTGATCTTGACATGCT (antisense; LNA-modified, pattern not given here) [EGFR-2790 LNA KL]” was tested, and the “TLR7 100 nM (averaged NF-κB-Luciferase level relative to R848 condition)” value was 0.438 and the “TLR7 500 nM (averaged NF-κB-Luciferase level relative to R848 condition)” value was 0.060.
For “AACACTTCGTGGGGTC (antisense; LNA-modified, pattern not given here) [HPRT LNA-666 V1]”, the “TLR7 100 nM (averaged NF-κB-Luciferase level relative to R848 condition)” value was 0.899 and the “TLR7 500 nM (averaged NF-κB-Luciferase level relative to R848 condition)” value was 0.445.
In the case of “mC*mU*mU*mG*mU*G*A*A*A*A*G*A*T*T*A*mU*mC*mU*mU*mC (mC*mU*mU*mG*mU*dG*dA*dA*dA*dA*dG*dA*dT*dT*dA*mU*mC*mU*mU*mC) [[CDKN2B-AS1]2139]”, the “TLR7-100 nM: averaged NF-κB-Luciferase relative to R848” value (HEK-TLR7) is reported as 85.33% and the “inhibition of R848 sensing by TLR7, short pre-treatment (in words)” value (HEK-TLR7, 100-500 nM oligo 20-50 min before R848 1 μg/ml) is reported as “did not inhibit TLR7”.
In the case of “CGTATTATAGCCGATT (antisense; LNA-modified, pattern not given here) [NC1 LNA PS 3-10-3]”, the “TLR7 100 nM (averaged NF-κB-Luciferase level relative to R848 condition)” value is reported as 0.754 and the “TLR7 500 nM (averaged NF-κB-Luciferase level relative to R848 condition)” value is reported as 0.226.
“GAAAGGTTATGCAAGG (antisense; LNA-modified, pattern not given here) [CTNN2B-916 LNA KL]” was tested, and the “TLR7 100 nM (averaged NF-κB-Luciferase level relative to R848 condition)” value was 0.166 and the “TLR7 500 nM (averaged NF-κB-Luciferase level relative to R848 condition)” value was 0.101.
For “ATGTGATGGCCTCCCA (antisense; LNA-modified, pattern not given here) [HPRT LNA-335 V1]”, the “TLR7 100 nM (averaged NF-κB-Luciferase level relative to R848 condition)” value was 0.499 and the “TLR7 500 nM (averaged NF-κB-Luciferase level relative to R848 condition)” value was 0.128.
In the case of “AACCCCTTTCACCATC (antisense; LNA-modified, pattern not given here) [MB21D1-689 LNA KL]”, the “TLR7 100 nM (averaged NF-κB-Luciferase level relative to R848 condition)” value is reported as 0.771 and the “TLR7 500 nM (averaged NF-κB-Luciferase level relative to R848 condition)” value is reported as 0.426.
For “GAGGTCTTGGCTTCGT (antisense; LNA-modified, pattern not given here) [MB21D1-525 LNA V1]”, the “TLR7 100 nM (averaged NF-κB-Luciferase level relative to R848 condition)” value was 0.793 and the “TLR7 500 nM (averaged NF-κB-Luciferase level relative to R848 condition)” value was 0.067.
“CCACTTGGCAGACCAT (antisense; LNA-modified, pattern not given here) [CTNN2B-1575 LNA V1]” was tested, and the “TLR7 100 nM (averaged NF-κB-Luciferase level relative to R848 condition)” value was 0.765 and the “TLR7 500 nM (averaged NF-κB-Luciferase level relative to R848 condition)” value was 0.470.
